Tests used:
HCoV-OC43 = test: Anti-coronavirus activity assay; type: cell-based; details: HCT-8 cells, MOI 0.1, serial dilutions up to 50 μM
SARS-CoV-2 3CL^pro [1] = molecular target: T1, SARS-CoV-2 3CL^pro (Severe acute respiratory syndrome coronavirus 2, UniProt P0DTD1); test: Microscale thermophoresis; type: binding
SARS-CoV-2 3CL^pro [2] = molecular target: T1, SARS-CoV-2 3CL^pro; test: cell-based; details: EC50 against SARS-CoV-2 3CLpro (BRET ratio)

For `C=C(C)[C@@H]1CC[C@]2(C(=O)O)CC[C@]3(C)[C@H](CC[C@@H]4[C@@]5(C)CC[C@H](OC(=O)CC(C)(C)C(=O)O)C(C)(C)[C@@H]5CC[C@]43C)[C@@H]12` [bevirimat, Bevirimat], the “inhibitory effect on the replication of HCoV-OC43” value (HCoV-OC43) was “did not significantly inhibit”, the Kd (SARS-CoV-2 3CL^pro [1]; Kd(M), MST, target 100 nM, ligand 0.0153 μM–500 μM, MST power 40%) was 1.05e-05 M and the Kd (SARS-CoV-2 3CL^pro [1]; Kd, MST, labeled 3CLpro 100 nM, 40% MST power) was 1.05e-05 M.

In the case of `C=C[C@@H]1C[C@]1(NC(=O)[C@@H]1C[C@@H]2CN1C(=O)[C@H](C(C)(C)C)NC(=O)O[C@@H]1C[C@H]1CCCCCc1nc3ccc(OC)cc3nc1O2)C(=O)NS(=O)(=O)C1CC1.O` [grazoprevir, Grazoprevir], the “inhibitory effect on the replication of HCoV-OC43” value (HCoV-OC43) is reported as “did not significantly inhibit”.

`Cc1c(O)cccc1C(=O)N[C@@H](CSc1ccccc1)[C@H](O)CN1C[C@H]2CCCC[C@H]2C[C@H]1C(=O)NC(C)(C)C` [nelfinavir, Nelfinavir] showed a Kd (SARS-CoV-2 3CL^pro [1]; Kd) of 9.16e-05 M and a Kd (SARS-CoV-2 3CL^pro [1]; Kd(M)) of 9.16e-05 M.

`CC(C)(C)NC(=O)[C@@H]1C[C@@H]2CCCC[C@@H]2CN1C[C@@H](O)[C@H](Cc1ccccc1)NC(=O)[C@H](CC(N)=O)NC(=O)c1ccc2ccccc2n1` [saquinavir] gave an EC50 (SARS-CoV-2 3CL^pro [2]) of 40 µM.
